Data taken from PubChem BioAssay (NCI).
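Test compounds were applied to cells in 96-well plates for 48 hours at 5 doses. TGI denotes the concentration required for complete inhibition of growth.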

Tests used:
Assay in all cases: NCI tumour cell line growth inhibition, 48 h
786-0 renal = system: 786-0 renal
HOP-62 NSCLC = system: HOP-62 NSCLC
HCT-116 colon = system: HCT-116 colon
SK-MEL-2 melanoma = system: SK-MEL-2 melanoma
HCT-15 colon = system: HCT-15 colon
SK-MEL-28 melanoma = system: SK-MEL-28 melanoma
NCI-H226 lung = system: NCI-H226 lung
A498 renal = system: A498 renal
CAKI-1 renal = system: CAKI-1 renal
OVCAR-8 ovarian = system: OVCAR-8 ovarian
UACC-62 melanoma = system: UACC-62 melanoma
KM12 colon = system: KM12 colon
SF-295 CNS = system: SF-295 CNS
MCF7 breast = system: MCF7 breast
SW-620 colon = system: SW-620 colon
OVCAR-4 ovarian = system: OVCAR-4 ovarian
HOP-92 NSCLC = system: HOP-92 NSCLC
HL-60(TB) leukemia = system: HL-60(TB) leukemia
SN12C renal = system: SN12C renal

Structure (SMILES) | TGI (786-0 renal) | TGI (HOP-62 NSCLC) | TGI (HCT-116 colon) | TGI (SK-MEL-2 melanoma) | TGI (HCT-15 colon) | TGI (SK-MEL-28 melanoma) | TGI (NCI-H226 lung) | TGI (A498 renal) | TGI (CAKI-1 renal) | TGI (OVCAR-8 ovarian) | TGI (UACC-62 melanoma) | TGI (KM12 colon) | TGI (SF-295 CNS) | TGI (MCF7 breast) | TGI (SW-620 colon) | TGI (OVCAR-4 ovarian) | TGI (HOP-92 NSCLC) | TGI (HL-60(TB) leukemia) | TGI (SN12C renal)
Clc1ccc(-c2nc3ccc4ccccc4c3c3c2CCCC3)cc1 | > 100 µM | > 100 µM | > 100 µM | > 100 µM | > 100 µM | > 100 µM | > 100 µM | > 100 µM | > 100 µM | > 100 µM | > 100 µM | > 100 µM | > 100 µM | > 100 µM | > 100 µM |  |  |  | 
OCCCCCCCCCCCOc1ccc(C2OCC3(CC=CCC3)CO2)cc1 (stereo not given) | 30.5 µM | 35.9 µM | 29.3 µM | > 100 µM | 32.3 µM | 42.4 µM | 52.9 µM |  | 31.1 µM | 43.1 µM | 32.8 µM | 28.7 µM | 34.7 µM | 19.6 µM | 39.1 µM | 34 µM | 32.8 µM | 88.7 µM | 36.8 µM
Cc1cc2cc3ccccc3cc2c(=O)[nH]1 | > 10 µM |  | > 10 µM |  |  |  | > 10 µM |  |  | > 10 µM | > 10 µM | > 10 µM | > 10 µM | > 10 µM | > 10 µM | > 10 µM | > 10 µM | > 10 µM | 
Cn1ccoc1=Nc1ccc(Cl)c(Cl)c1 | > 10 µM | > 10 µM | > 10 µM |  | > 10 µM | > 10 µM | > 10 µM | > 10 µM | > 10 µM | > 10 µM | > 10 µM | > 10 µM | > 10 µM | > 10 µM | > 10 µM | > 10 µM | > 10 µM |  | > 10 µM
CCCCCCC1CC(=O)C1(Cl)Cl (stereo not given) | 32.2 µM | > 100 µM | 30.4 µM | 68.3 µM | 99.6 µM |  | > 100 µM |  | 33.3 µM | 59.5 µM | 47.8 µM | 55.7 µM | > 100 µM | 63.7 µM | > 100 µM | > 100 µM |  | 44.1 µM | 98.1 µM
COCCOC1=C(Cl)C(=O)c2c(O)ccc(O)c2C1=O | 3.23 µM | 9.94 µM | 2.6 µM | 14.5 µM | 3.32 µM | 5.07 µM | 28.9 µM | 22.2 µM | 1.11 µM | 6.66 µM | 10.7 µM | 26.8 µM | 35.1 µM | 3.04 µM | 1.4 µM | 4.34 µM | 2.2 µM |  | 4.04 µM
COC(=O)/C(=N/NC(C)(C)C)C(C(=O)OC)C(=O)C(=O)Nc1nc2ccc([N+](=O)[O-])cc2s1 (stereo not given) | > 100 µM | > 100 µM | > 100 µM | > 100 µM | > 100 µM | > 100 µM | > 100 µM | > 100 µM | > 100 µM | > 100 µM | > 100 µM | > 100 µM | > 100 µM |  | > 100 µM | > 100 µM |  | > 100 µM | > 100 µM
Cc1c(N=Nc2ccc(Cl)cc2)c(C)n(C2OC(CO)C(O)C(O)C2O)c(=S)c1C#N (stereo not given) | 37.4 µM | 36.8 µM | 29.1 µM | 33.8 µM | 60.8 µM | 52.3 µM | 65.9 µM |  | > 100 µM | 63.9 µM | 30.5 µM | 54.5 µM | 83.5 µM | > 100 µM | > 100 µM | 50.1 µM | 71.4 µM | 58.3 µM | 41.8 µM
COc1ccc(Nc2nc3ccc(C(F)(F)F)cc3nc2C(=O)O)cc1 | > 100 µM | > 100 µM | > 100 µM | > 100 µM | > 100 µM | > 100 µM | > 100 µM | 57.2 µM | > 100 µM | > 100 µM | 67.3 µM | 70.9 µM | 89.4 µM | > 100 µM | > 100 µM | > 100 µM | 92 µM |  | > 100 µM
C[N+](C)(C)CCOP(=O)([O-])OCCNC(=O)c1ccc2ccccc2c1 | > 100 µM | > 100 µM | > 100 µM |  | > 100 µM | > 100 µM | > 100 µM |  | > 100 µM | > 100 µM | > 100 µM | > 100 µM | > 100 µM | > 100 µM | > 100 µM |  |  | > 100 µM | > 100 µM
CNN1C(=O)c2c(C)c(C)c(C#N)c(N)c2C1=O | > 100 µM |  | > 100 µM | > 100 µM | > 100 µM | > 100 µM | > 100 µM |  | > 100 µM | > 100 µM | > 100 µM | > 100 µM | > 100 µM | > 100 µM | > 100 µM | > 100 µM | > 100 µM | > 100 µM | > 100 µM
CCn1c(O)c(C=Nc2ccccc2)s/c1=N/Nc1nc(-c2ccc(O)c(O)c2)cs1 | > 100 µM | > 100 µM | > 100 µM | > 100 µM | > 100 µM | > 100 µM | > 100 µM |  | > 100 µM | > 100 µM | > 100 µM | > 100 µM | 85.6 µM | > 100 µM | > 100 µM | > 100 µM | > 100 µM | 6.04 µM | > 100 µM
COc1ccc2nc3c([N+](=O)[O-])ccc(NCCN(C)C)c3c(NCCN(C)C)c2c1 | 1.98 µM | 2.73 µM |  |  | 2.59 µM | 4.15 µM |  |  | > 10 µM | 3.04 µM | > 10 µM | 2.82 µM | 3.03 µM | 1.84 µM | 3.25 µM | 1.86 µM | > 10 µM | 3.02 µM | 2.78 µM
CC(=O)O[C@H]1C(=O)[C@@]2(C)C(C(OC(=O)c3ccccc3)[C@]3(O)CC(OC(=O)C(O)C(NC(=O)c4ccccc4)c4cccc(Cl)c4)C(C)=C1C3(C)C)[C@]1(OC(C)=O)CO[C@@H]1C[C@@H]2O (stereo not given in full) | > 10 µM | > 10 µM | > 10 µM | > 10 µM | > 10 µM |  | > 10 µM |  | > 10 µM | > 10 µM | > 10 µM | > 10 µM | > 10 µM | > 10 µM | > 10 µM | > 10 µM |  | 4.88 µM | > 10 µM
